According to US10266609B2, “Immunomodulating beta-1,6-D-glucans” (Innate Biotherapeutics, LLC, priority 2014, dated 2019):

Test system: Anti-β-1,6-Glucan IgG antibodies (affinity purified from IVIG, Baxter)
Assay: ELISA: binding of oligosaccharides to anti-β-1,6-glucan antibodies; also: key: a plus (+) sign indicates that the glucan was active in the assay; a minus (−) sign indicates that the glucan was not active; the '+/−' symbol indicates inconclusive results
Conditions: plate coated with oligosaccharide in PBS; 40 ug/mL anti-Beta 1,6 Glucan IgG; anti-human IgG-HRP, TMB, absorbance at 620 nm
Protocol: Binding of oligosaccharides to anti-β-1,6-glucan antibodies is performed as described in the following protocol.
• 1. […] Anti-β-1,6-Glucan IgG antibodies (affinity purified from IVIG, Baxter) • 6. […] PBS-Tween buffer (PH 7.2, 0.05% Tween 20, Kpl cat #51-12-01) II. Method: Detection of Anti-Beta Glucan IgG by ELISA • 1. Coat plate with oligosaccharides in PBS overnight at 4° C. • 2. Wash 3 times with 250 uL of PBS-Tween • 3. Empty plate • 4. Block plate with 200 uL of Casein for 1 hour at room temperature • 5. Empty plate • 6. Add 40 ug/mL anti-Beta 1,6 Glucan IgG (4 ug/well) in Casein • 7. Incubate for 45 min at room temperature • 8. Wash 3 times with 250 uL of PBS-Tween • 9. Empty plate • 10. Add detection antibody: anti-human IgG-HRP at 1:5000—in casein. Incubate for 45 min at room temperature in the dark • 11. Wash 5 times with 250 uL of PBS-Tween • 12. Empty plate • 13. Add 100 uL of one step ultra TMB • 14. Measure the absorbance at 620 nm every 1 min for 60 min Tables 1-3 provide ELISA assay data for certain glucan compounds.

| SMILES | ELISA assay data: glucan active in detection of anti-beta glucan IgG |
| --- | --- |
| OC[C@H]1O[C@@H](OC[C@H]2O[C@@H](OC[C@H]3OC(O)[C@H](O)[C@@H](O)[C@@H]3O)[C@H](O)[C@@H](O)[C@@H]2O)[C@H](O)[C@@H](O)[C@@H]1O (stereo partly shown) [OH, n=3] | + |
| OC[C@H]1O[C@@H](OC[C@H]2O[C@@H](OC[C@H]3O[C@@H](OC[C@H]4O[C@@H](OC[C@H]5O[C@@H](OC[C@H]6O[C@@H](OC[C@H]7OC(OCCCl)[C@H](O)[C@@H](O)[C@@H]7O)[C@H](O)[C@@H](O)[C@@H]6O)[C@H](O)[C@@H](O)[C@@H]5O)[C@H](O)[C@@H](O)[C@@H]4O)[C@H](O)[C@@H](O)[C@@H]3O)[C@H](O)[C@@H](O)[C@@H]2O)[C@H](O)[C@@H](O)[C@@H]1O (stereo partly drawn) [α-O(CH2)2Cl, n=7, 2-chloroethyl [O-β-D-glucopyranosyl-1,6]6-D-glucopyranoside] | + |
| OC[C@H]1O[C@@H](OC[C@H]2O[C@@H](OC[C@H]3O[C@@H](OC[C@H]4O[C@@H](OC[C@H]5O[C@@H](OC[C@H]6O[C@@H](OC[C@H]7O[C@@H](OC[C@H]8O[C@@H](OC[C@H]9OC(OCCCl)[C@H](O)[C@@H](O)[C@@H]9O)[C@H](O)[C@@H](O)[C@@H]8O)[C@H](O)[C@@H](O)[C@@H]7O)[C@H](O)[C@@H](O)[C@@H]6O)[C@H](O)[C@@H](O)[C@@H]5O)[C@H](O)[C@@H](O)[C@@H]4O)[C@H](O)[C@@H](O)[C@@H]3O)[C@H](O)[C@@H](O)[C@@H]2O)[C@H](O)[C@@H](O)[C@@H]1O (stereo partly drawn) [α-O(CH2)2Cl, n=9, 2-chloroethyl [O-β-D-glucopyranosyl-1,6]8-D-glucopyranoside] | + |
| OC[C@H]1O[C@@H](OC[C@H]2O[C@@H](OC[C@H]3O[C@@H](OC[C@H]4O[C@@H](OC[C@H]5O[C@@H](OC[C@H]6O[C@@H](OC[C@H]7O[C@@H](OC[C@H]8O[C@@H](OC[C@H]9O[C@@H](OC[C@H]%10O[C@@H](OC[C@H]%11O[C@@H](OC[C@H]%12OC(O)[C@H](O)[C@@H](O)[C@@H]%12O)[C@H](O)[C@@H](O)[C@@H]%11O)[C@H](O)[C@@H](O)[C@@H]%10O)[C@H](O)[C@@H](O)[C@@H]9O)[C@H](O)[C@@H](O)[C@@H]8O)[C@H](O)[C@@H](O)[C@@H]7O)[C@H](O)[C@@H](O)[C@@H]6O)[C@H](O)[C@@H](O)[C@@H]5O)[C@H](O)[C@@H](O)[C@@H]4O)[C@H](O)[C@@H](O)[C@@H]3O)[C@H](O)[C@@H](O)[C@@H]2O)[C@H](O)[C@@H](O)[C@@H]1O (stereo partly drawn) [OH, n=12, [O-β-D-glucopyranosyl-1,6-]11-D-glucose] | + |
| O=C(O)C1CCN(CC(O)[C@@H](O)[C@H](O)[C@H](O)CO[C@@H]2O[C@H](CO[C@@H]3O[C@H](CO[C@@H]4O[C@H](CO[C@@H]5O[C@H](CO[C@@H]6O[C@H](CO)[C@@H](O)[C@H](O)[C@H]6O)[C@@H](O)[C@H](O)[C@H]5O)[C@@H](O)[C@H](O)[C@H]4O)[C@@H](O)[C@H](O)[C@H]3O)[C@@H](O)[C@H](O)[C@H]2O)CC1 (mixture of isomers) [4-piperidineCO2H, n=5] | + |
| OC[C@H]1O[C@@H](OC[C@H]2O[C@@H](OC[C@H]3O[C@@H](OC[C@H]4O[C@@H](OC[C@H]5O[C@@H](OC[C@H]6O[C@@H](OC[C@H]7O[C@@H](OC[C@H]8O[C@@H](OC[C@H]9O[C@@H](OC[C@H]%10O[C@@H](OC[C@H]%11OC(O)[C@H](O)[C@@H](O)[C@@H]%11O)[C@H](O)[C@@H](O)[C@@H]%10O)[C@H](O)[C@@H](O)[C@@H]9O)[C@H](O)[C@@H](O)[C@@H]8O)[C@H](O)[C@@H](O)[C@@H]7O)[C@H](O)[C@@H](O)[C@@H]6O)[C@H](O)[C@@H](O)[C@@H]5O)[C@H](O)[C@@H](O)[C@@H]4O)[C@H](O)[C@@H](O)[C@@H]3O)[C@H](O)[C@@H](O)[C@@H]2O)[C@H](O)[C@@H](O)[C@@H]1O (stereo partly drawn) [OH, n=11, [O-β-D-glucopyranosyl-1,6]10-D-glucose] | + |
| [N-]=[N+]=NCCOC1OC(COC2OC(COC3OC(COC4OC(COC5OC(COC6OC(CO)C(O)C(O)C6O)C(O)C(O)C5O)C(O)C(O)C4O)C(O)C(O)C3O)C(O)C(O)C2O)C(O)C(O)C1O (stereo not drawn) [α-O(CH2)2N3, n=6] | + |
